Laboratory results as given in article doi:10.1101/2023.09.25.559398v1 (biorxiv, 2023).

Columns and labels:
[1] = target: D5R (Homo sapiens, UniProt P21918); assay: radioligand competition binding, cell homogenates
[2] = target: D1R (Homo sapiens, UniProt P21728); assay: radioligand competition binding, cell homogenates
[3] = target: T1, D4R (D4.4R) (Homo sapiens, UniProt P21917); assay: radioligand competition binding, cell homogenates
T1 sequence (P21917 1-419): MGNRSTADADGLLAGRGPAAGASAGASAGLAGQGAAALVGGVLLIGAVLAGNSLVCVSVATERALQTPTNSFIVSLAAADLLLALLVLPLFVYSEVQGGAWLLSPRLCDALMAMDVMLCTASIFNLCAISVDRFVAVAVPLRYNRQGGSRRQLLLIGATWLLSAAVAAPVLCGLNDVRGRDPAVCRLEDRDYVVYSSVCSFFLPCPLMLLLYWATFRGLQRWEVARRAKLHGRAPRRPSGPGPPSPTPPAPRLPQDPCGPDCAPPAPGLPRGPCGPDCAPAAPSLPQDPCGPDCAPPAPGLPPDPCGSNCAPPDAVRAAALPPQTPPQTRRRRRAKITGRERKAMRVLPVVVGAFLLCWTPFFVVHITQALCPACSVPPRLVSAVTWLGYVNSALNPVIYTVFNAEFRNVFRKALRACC

[4] = target: T2, D2longR (Homo sapiens, UniProt P14416); assay: radioligand competition binding, cell homogenates
T2 sequence (P14416 whole entry): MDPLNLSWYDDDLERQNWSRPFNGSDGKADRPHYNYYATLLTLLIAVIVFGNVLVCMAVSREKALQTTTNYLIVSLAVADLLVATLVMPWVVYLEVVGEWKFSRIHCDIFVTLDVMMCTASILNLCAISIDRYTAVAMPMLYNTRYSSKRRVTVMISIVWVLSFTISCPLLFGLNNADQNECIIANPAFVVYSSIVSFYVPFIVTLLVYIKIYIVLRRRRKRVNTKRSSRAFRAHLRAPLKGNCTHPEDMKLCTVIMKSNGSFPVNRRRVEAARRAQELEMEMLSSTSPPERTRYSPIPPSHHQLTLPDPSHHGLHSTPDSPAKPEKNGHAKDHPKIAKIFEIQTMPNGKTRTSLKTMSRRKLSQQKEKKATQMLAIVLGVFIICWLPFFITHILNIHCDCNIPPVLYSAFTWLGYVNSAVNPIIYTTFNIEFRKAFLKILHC

[5] = target: D3R (Homo sapiens, UniProt P35462); assay: radioligand competition binding, cell homogenates
Sequence of D3R (P35462 whole entry): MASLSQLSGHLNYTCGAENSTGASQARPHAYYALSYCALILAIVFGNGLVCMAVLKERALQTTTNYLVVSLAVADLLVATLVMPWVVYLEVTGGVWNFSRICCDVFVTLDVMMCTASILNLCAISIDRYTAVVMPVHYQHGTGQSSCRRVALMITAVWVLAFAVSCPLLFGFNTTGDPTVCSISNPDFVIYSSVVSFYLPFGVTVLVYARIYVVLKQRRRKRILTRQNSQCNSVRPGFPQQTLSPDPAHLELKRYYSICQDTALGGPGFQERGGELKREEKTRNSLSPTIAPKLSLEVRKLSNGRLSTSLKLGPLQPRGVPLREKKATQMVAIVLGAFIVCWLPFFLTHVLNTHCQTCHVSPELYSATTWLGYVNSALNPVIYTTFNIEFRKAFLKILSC

[6] = target: T2, D2longR; assay: Go1-CASE BRET heterotrimer dissociation assay, antagonist mode; format: cell-based
[7] = target: T3, D4R (Homo sapiens, UniProt P21917); assay: as above; format: cell-based
T3 sequence (P21917 1-419): T1 sequence (P21917 1-419)

[8] = target: D2longR-mNeonGreen (hD2R-mNeonGreen) (Homo sapiens, UniProt P14416); assay: molecular brightness, confocal microscopy of intact cells; format: cell-based
Sequence of D2longR-mNeonGreen (hD2R-mNeonGreen) (P14416 whole entry): as the sequence (P14416 whole entry) above

Sequence of D5R (P21918 whole entry): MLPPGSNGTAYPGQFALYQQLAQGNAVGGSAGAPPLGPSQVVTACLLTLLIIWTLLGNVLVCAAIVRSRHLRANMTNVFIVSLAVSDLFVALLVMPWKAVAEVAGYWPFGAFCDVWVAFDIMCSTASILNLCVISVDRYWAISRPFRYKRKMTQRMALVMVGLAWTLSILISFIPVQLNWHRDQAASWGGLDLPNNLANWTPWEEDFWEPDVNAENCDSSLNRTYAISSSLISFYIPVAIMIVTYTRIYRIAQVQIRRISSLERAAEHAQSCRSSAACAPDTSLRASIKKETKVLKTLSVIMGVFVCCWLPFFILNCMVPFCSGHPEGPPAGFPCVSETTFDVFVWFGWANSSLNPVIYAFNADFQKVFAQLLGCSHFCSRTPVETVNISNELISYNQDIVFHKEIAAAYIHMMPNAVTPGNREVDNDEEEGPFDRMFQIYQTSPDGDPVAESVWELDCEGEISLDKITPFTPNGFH
Sequence of D1R (P21728 whole entry): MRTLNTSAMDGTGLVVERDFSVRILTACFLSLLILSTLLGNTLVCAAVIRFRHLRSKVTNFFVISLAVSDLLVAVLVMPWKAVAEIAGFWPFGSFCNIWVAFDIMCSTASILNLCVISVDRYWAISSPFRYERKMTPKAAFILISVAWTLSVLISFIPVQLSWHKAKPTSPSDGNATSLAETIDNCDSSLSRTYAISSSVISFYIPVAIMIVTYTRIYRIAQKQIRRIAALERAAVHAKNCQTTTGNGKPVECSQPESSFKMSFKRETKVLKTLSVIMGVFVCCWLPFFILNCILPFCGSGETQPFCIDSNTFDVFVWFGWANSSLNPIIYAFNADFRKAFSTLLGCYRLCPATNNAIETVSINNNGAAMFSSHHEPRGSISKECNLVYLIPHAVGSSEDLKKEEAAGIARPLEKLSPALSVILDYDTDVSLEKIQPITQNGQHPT

| Ki [1] [nM] | Ki [2] [nM] | Ki [3] [nM] | Ki [4] [nM] | Ki [5] [nM] | Kb [6] [nM] | Kb [7] [nM] | Kd [8] [nM] | pKi ([4]; displacement of […] [3H]N-methylspiperone, room temperature, […] min, N = […]) | SMILES |
| --- | --- | --- | --- | --- | --- | --- | --- | --- | --- |
| > 3160 | 331 | 29.5 | 5.62 | 5.13 | – | – | – | – | CN(C)c1ccc2c(-c3ccc(C(=O)NCCCOCCOCCOCCCNC(=O)CCC(=O)Nc4ccc(CCN5CN(c6ccccc6)C6(CCN(CCCC(=O)c7ccc(F)cc7)CC6)C5=O)cc4)cc3C(=O)[O-])c3ccc(=[N+](C)C)cc-3oc2c1 [compound 17, 2-(6-(Dimethylamino)-3-(dimethyliminio)-3H-xanthen-9-yl)-5-((18-((4-(2-(8-(4-(4-fluorophenyl)-4-oxobutyl)-4-oxo-1-phenyl-1,3,8-triazaspiro[4.5]decan-3-yl)ethyl)phenyl)amino)-15,18-dioxo-4,7,10-trioxa-14-azaoctadecyl)carbamoyl)benzoate dihydrotrifluoroacetate] |
| 331 | 67.6 | 16.6 | 5.75 | 2.63 | 0.0295 | 1.66 | 7.59 | – | CN(C)c1ccc2c(-c3ccc(C(=O)NCCCC(=O)Nc4ccc(CCN5CN(c6ccccc6)C6(CCN(CCCC(=O)c7ccc(F)cc7)CC6)C5=O)cc4)cc3C(=O)[O-])c3ccc(=[N+](C)C)cc-3oc2c1 [compound 20, 2-(6-(Dimethylamino)-3-(dimethyliminio)-3H-xanthen-9-yl)-5-((4-((4-(2-(8-(4-(4-fluorophenyl)-4-oxobutyl)-4-oxo-1-phenyl-1,3,8-triazaspiro[4.5]decan-3-yl)ethyl)phenyl)amino)-4-oxobutyl)carbamoyl)benzoate dihydrotrifluoracetate] |
| – | – | – | – | – | – | – | – | 6.67 ± 0.07 | COCC[N+]1=C(C=CC=C2N(CCCCCC(=O)NCCCOCCOCCOCCCNC(=O)CCC(=O)Nc3ccc(CCN4CN(c5ccccc5)C5(CCN(CCCC(=O)c6ccc(F)cc6)CC5)C4=O)cc3)c3ccc(S(=O)(=O)[O-])cc3C2(C)CCCS(=O)(=O)O)C(C)(CCCS(=O)(=O)O)c2cc(S(=O)(=O)O)ccc21 (centres unmarked) [compound 16] |
